Experimental data as given in US20110212899A1, “Corneal Neuritogenesis Promoter Containing Pacap and Its Derivative” (priority 2004, published 2011).
Where no end group is shown, it is not given here.

Test system: Human normal corneal epithelial cells
Assay: Promoting effect on proliferation of cultured corneal epithelial cells (Test Example 8)
Type: cell-based
Conditions: final concentration (10^−5 M), cultivation for 8 days; p<0.05
Procedure: Human normal corneal epithelial cells (Kurabo Industries Ltd., strain No. 4C0466) were used. Peptide 24 and PACAP27 were used as test substances. The test substance was dissolved in distilled water at a concentration 1000 times of the final concentration (10^−5 M), and the concentration was then adjusted to twice the final concentration with a serum-free proliferation medium for human corneal epithelial cells (EpiLife (−), Kurabo Industries Ltd.). After thawing freeze-preserved human normal corneal epithelial cells, the cells were seeded according to a conventional method and cultured for 7 days at 37° C. in 5% CO2. After the cultivation, the cells were harvested by a conventional method, and were suspended in EpiLife (−) at a concentration of 1.0×10^4 cells/mL. […] The number of the cells was counted based on the ability to reduce MTT (3-(4,5-dimethyl-2-thiazolyl)-2,5-diphenyl-2H-tetrazolium bromide) according to the protocol of Cell Counting Kit-8 (Dojindo Laboratories). […] The plate was incubated at 37° C. in 5% CO2 for 2 hours and then, the absorbance was measured at 450 nm using a microplate reader. Average values of absorbance in the control group and each test substance-addition group were calculated, and the values were compared between the control group and each test substance-addition group by a Dunnett's multiple comparison test (one-tailed). […]

## His-Ser-Asp-Ala-Ile-Phe-Thr-Asp-Ser-Tyr-Ser-Arg-Tyr-Arg-Arg-Gln-Leu-Ala-Val-Arg-Arg-Tyr-Leu-Ala-Ala-Val-Leu-Gly-Arg-Arg-NH2 (HSDAIFTDSYSRYRRQLAVRRYLAAVLGRR-NH2) [Peptide 24]
  cell number (MTT reduction ability) compared with control group: increased
